From US20200288710A1, “SUBSTITUTED SULPHONAMIDES FOR CONTROLLING ANIMAL PESTS” (BAYER CROPSCIENCE AKTIENGESELLSCHAFT, priority 2016, published 2020)

Tests used:
Myzus persicae = Myzus persicae oral test; assay type: in vivo; settings: 120 h, 20 ppm, oral uptake, after 5 days, read-out: efficacy
How it was run: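 Compound dissolved in acetone, diluted in water, then mixed 50:150 μl with IPL41 insect medium (33%+15% sugar). Mixed-population green peach aphids feed through a parafilm seal on the solution; mortality scored as % efficacy after 5 days (100% = all killed).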

Meloidogyne incognita = Meloidogyne incognita test; assay type: in vivo; settings: 336 h, lettuce, after 14 days, read-out: nematicidal efficacy (formation of galls)
Procedure: Meloidogyne incognita Test Solvent: 125.0 parts by weight of acetone To produce a suitable active compound preparation, 1 part by weight of active compound is mixed with the stated amount of solvent and the concentrate is diluted with water to the desired concentration. Vessels are filled with sand, active compound solution, an egg/larvae suspension of the southern rootknot nematode (Meloidogyne incognita) and lettuce seeds. The lettuce seeds germinate and the plants develop. The galls develop on the roots. After 14 days, the nematicidal efficacy in % is determined by the formation of galls. 100% means that no galls were found; 0% means that the number of galls on the treated plants corresponds to the untreated control.

## Cc1[nH]c(-c2cccc(Cl)c2)nc1C(=O)NS(=O)(=O)c1ccccc1Cl [Example 233]
Myzus persicae
  pest or weed control at 20 ppm: 100%
Meloidogyne incognita
  pest or weed control at 20 ppm: 90%

## CCc1c(C(=O)NS(=O)(=O)c2ccccc2C)nc(-c2c(F)cccc2F)n1C [Example 199]
Myzus persicae
  pest or weed control at 20 ppm: 100%
Meloidogyne incognita
  pest or weed control at 20 ppm: 90%

## CCn1c(C(=O)NS(=O)(=O)c2ccccc2OC)nc(-c2c(F)cccc2F)c1C [Example 416]
Myzus persicae
  pest or weed control at 20 ppm: 90%
Meloidogyne incognita
  pest or weed control at 20 ppm: 90%

## COCCS(=O)(=O)NC(=O)c1cn(C)c(-c2c(F)cccc2F)n1 [Example 141]
Myzus persicae
  pest or weed control at 20 ppm: 90%
Meloidogyne incognita
  pest or weed control at 20 ppm: 90%

## Cc1[nH]c(C(=O)NS(=O)(=O)C(C)C)nc1-c1ccccc1Cl [Example 202]
Myzus persicae
  pest or weed control at 20 ppm: 100%
Meloidogyne incognita
  pest or weed control at 20 ppm: 90%

## COc1ccc(Cl)c(S(=O)(=O)NC(=O)c2nc(-c3ccc(Cl)cc3)[nH]c2C)c1 [Example 618]
Myzus persicae
  pest or weed control at 20 ppm: 100%
Meloidogyne incognita
  pest or weed control at 20 ppm: 100%

## CC(C)c1cccc(-c2nc(C(=O)NS(=O)(=O)c3ccccc3Br)cn2C)c1 [Example 330]
Myzus persicae
  pest or weed control at 20 ppm: 90%
Meloidogyne incognita
  pest or weed control at 20 ppm: 90%

## Cc1ccccc1-c1nc(C(=O)NS(=O)(=O)c2ccc(Cl)cc2)cn1C [Example 49]
Myzus persicae
  pest or weed control at 20 ppm: 100%
Meloidogyne incognita
  pest or weed control at 20 ppm: 100%

## Cn1cc(C(=O)NS(=O)(=O)c2c(C(F)(F)F)cccc2[Si](C)(C)C)nc1-c1c(F)cccc1F [Example 375]
Meloidogyne incognita
  pest or weed control at 20 ppm: 90%

## Cn1cc(C(=O)NS(=O)(=O)Cc2cccc(Cl)c2)nc1-c1ccccc1Cl [Example 61]
Myzus persicae
  pest or weed control at 20 ppm: 100%
Meloidogyne incognita
  pest or weed control at 20 ppm: 100%

## CCc1[nH]c(-c2ccc(Cl)cc2)nc1C(=O)NS(=O)(=O)c1ccccc1C [Example 590]
Myzus persicae
  pest or weed control at 20 ppm: 100%
Meloidogyne incognita
  pest or weed control at 20 ppm: 90%

## Cc1ccccc1S(=O)(=O)NC(=O)c1cc(-c2ncccc2Cl)n(-c2ccccc2Cl)n1 [Example 265]
Myzus persicae
  pest or weed control at 20 ppm: 100%
Meloidogyne incognita
  pest or weed control at 20 ppm: 100%

## Cn1cc(C(=O)NS(=O)(=O)c2ccc(Br)s2)nc1-c1c(F)cccc1F [Example 353]
Myzus persicae
  pest or weed control at 20 ppm: 90%
Meloidogyne incognita
  pest or weed control at 20 ppm: 90%

## Cc1ccccc1S(=O)(=O)NC(=O)c1cn(C)c(-c2cccc(C(C)C)c2)n1 [Example 331]
Myzus persicae
  pest or weed control at 20 ppm: 100%
Meloidogyne incognita
  pest or weed control at 20 ppm: 90%

## CC(C)Cc1ccc(S(=O)(=O)NC(=O)c2cn(C)c(-c3ccccc3Cl)n2)cc1 [Example 288]
Meloidogyne incognita
  pest or weed control at 20 ppm: 90%

## Cn1cc(C(=O)NS(=O)(=O)c2ccccc2Cl)nc1-c1ccccc1Oc1ccccc1 [Example 484]
Meloidogyne incognita
  pest or weed control at 20 ppm: 100%

## Cc1[nH]c(-c2ccccc2F)nc1C(=O)NS(=O)(=O)c1ccccc1Cl [Example 626]
Meloidogyne incognita
  pest or weed control at 20 ppm: 90%

## COc1ccc(Cl)c(S(=O)(=O)NC(=O)c2nc(-c3ccccc3Cl)[nH]c2C)c1 [Example 239]
Myzus persicae
  pest or weed control at 20 ppm: 100%
Meloidogyne incognita
  pest or weed control at 20 ppm: 90%

## COc1ccccc1S(=O)(=O)NC(=O)c1cn(C)c(-c2cc(Cl)ccc2Cl)n1 [Example 527]
Meloidogyne incognita
  pest or weed control at 20 ppm: 90%

## CCc1ccccc1-c1nc(C(=O)NS(=O)(=O)c2ccccc2Cl)cn1C [Example 496]
Myzus persicae
  pest or weed control at 20 ppm: 90%
Meloidogyne incognita
  pest or weed control at 20 ppm: 100%

## Cc1[nH]c(-c2ccc(Cl)cc2)nc1C(=O)NS(=O)(=O)c1ccccc1Cl [Example 232]
Meloidogyne incognita
  pest or weed control at 20 ppm: 90%

## CCn1cc(C(=O)NS(=O)(=O)c2ccccc2C(F)(F)F)nc1-c1ccccc1Cl [Example 21]
Myzus persicae
  pest or weed control at 20 ppm: 100%
Meloidogyne incognita
  pest or weed control at 20 ppm: 90%

## Cc1ccccc1S(=O)(=O)NC(=O)c1cn(C)c(-c2ccccc2Oc2ccccc2)n1 [Example 485]
Meloidogyne incognita
  pest or weed control at 20 ppm: 90%

## COc1ccccc1S(=O)(=O)NC(=O)c1nc(-c2c(F)cccc2F)nn1C [Example 409]
Meloidogyne incognita
  pest or weed control at 20 ppm: 90%

## COc1ccccc1NS(=O)(=O)NC(=O)c1cn(C)c(-c2c(F)cccc2F)n1 [Example 508]
Meloidogyne incognita
  pest or weed control at 20 ppm: 90%

## Cc1ccccc1S(=O)(=O)NC(=O)c1cc(-c2ccccc2Cl)n(-c2ncccc2Cl)n1 [Example 261]
Meloidogyne incognita
  pest or weed control at 20 ppm: 90%

## Cn1cc(C(=O)NS(=O)(=O)c2ccccc2Cl)nc1-c1cccc2c1OC(F)(F)O2 [Example 541]
Meloidogyne incognita
  pest or weed control at 20 ppm: 100%

## Cn1nc(-c2c(F)cccc2F)nc1C(=O)NS(=O)(=O)c1ccccc1Br [Example 408]
Meloidogyne incognita
  pest or weed control at 20 ppm: 90%

## COc1ccc(S(=O)(=O)NC(=O)c2cn(C)c(-c3c(F)cccc3F)n2)cn1 [Example 344]
Meloidogyne incognita
  pest or weed control at 20 ppm: 90%

## COc1ccccc1S(=O)(=O)NC(=O)c1cn(C)c(-c2ccccc2Oc2ccccc2)n1 [Example 486]
Meloidogyne incognita
  pest or weed control at 20 ppm: 90%

## CC(C)Nc1ccccc1S(=O)(=O)NC(=O)c1cn(C)c(-c2ccccc2Cl)n1 [Example 253]
Meloidogyne incognita
  pest or weed control at 20 ppm: 90%

## Cc1cccc(C)c1S(=O)(=O)NC(=O)c1cc(-c2ncccc2Cl)n(-c2ccccc2Cl)n1 [Example 267]
Meloidogyne incognita
  pest or weed control at 20 ppm: 100%

## COc1cccc(C(C)C)c1S(=O)(=O)NC(=O)c1cn(C)c(-c2c(F)cccc2F)n1 [Example 377]
Meloidogyne incognita
  pest or weed control at 20 ppm: 90%

## CCNc1ccccc1S(=O)(=O)NC(=O)c1cn(C)c(-c2ccccc2Cl)n1 [Example 251]
Meloidogyne incognita
  pest or weed control at 20 ppm: 90%

## Cc1cc(C(=O)NS(=O)(=O)c2ccccc2Br)nn1-c1ccccc1C(F)(F)F [Example 292]
Meloidogyne incognita
  pest or weed control at 20 ppm: 90%

## COc1ccccc1S(=O)(=O)NC(=O)c1cn(C)c(-c2cccc3c2OC(F)(F)O3)n1 [Example 543]
Meloidogyne incognita
  pest or weed control at 20 ppm: 90%

## COc1ccc(Cl)c(S(=O)(=O)NC(=O)c2c(Cl)nc(-c3ccccc3Cl)n2C)c1 [Example 203]
Meloidogyne incognita
  pest or weed control at 20 ppm: 100%

## CCc1[nH]c(-c2ccc(F)cc2F)nc1C(=O)NS(=O)(=O)c1cc(OC)ccc1Cl [Example 244]
Meloidogyne incognita
  pest or weed control at 20 ppm: 90%

## COc1ccc(Cl)c(S(=O)(=O)NC(=O)c2nc(-c3ccccc3F)[nH]c2C)c1 [Example 627]
Meloidogyne incognita
  pest or weed control at 20 ppm: 90%

## Cc1ccc(C(C)C)cc1S(=O)(=O)NC(=O)c1cn(C)c(-c2c(F)cccc2F)n1 [Example 396]
Meloidogyne incognita
  pest or weed control at 20 ppm: 90%

## COc1ccc(Cl)c(S(=O)(=O)NC(=O)c2cc(-c3ncccc3Cl)n(-c3ccccc3Cl)n2)c1 [Example 457]
Meloidogyne incognita
  pest or weed control at 20 ppm: 100%

## O=C(NS(=O)(=O)c1c(Cl)cccc1Cl)c1cc(-c2ccccc2Cl)n(-c2ncccc2Cl)n1 [Example 263]
Meloidogyne incognita
  pest or weed control at 20 ppm: 100%

## CCc1[nH]c(-c2ccccc2Cl)nc1C(=O)NS(=O)(=O)c1ccccc1Cl [Example 243]
Meloidogyne incognita
  pest or weed control at 20 ppm: 90%

## CCc1[nH]c(-c2c(F)cccc2F)nc1C(=O)NS(=O)(=O)c1cc(OC)ccc1Cl [Example 246]
Meloidogyne incognita
  pest or weed control at 20 ppm: 90%

## Cn1cc(C(=O)NS(=O)(=O)Nc2ccc(Cl)cc2)nc1-c1c(F)cccc1F [Example 506]
Meloidogyne incognita
  pest or weed control at 20 ppm: 90%

## O=C(NS(=O)(=O)c1ccccc1Cl)c1cc(-c2ccccc2Cl)n(-c2ncccc2Cl)n1 [Example 262]
Meloidogyne incognita
  pest or weed control at 20 ppm: 90%

## Cn1c(-c2ccccc2Cl)nc(C(=O)NS(=O)(=O)c2ccccc2Cl)c1Br [Example 580]
Meloidogyne incognita
  pest or weed control at 20 ppm: 100%

## Cn1cc(C(=O)NS(=O)(=O)c2ccccc2Cl)nc1-c1ccccc1C#N [Example 481]
Meloidogyne incognita
  pest or weed control at 20 ppm: 90%

## CC(C)Cc1ccc(S(=O)(=O)NC(=O)c2cn(C)c(-c3c(F)cccc3F)n2)cc1 [Example 287]
Meloidogyne incognita
  pest or weed control at 20 ppm: 90%

## CCc1[nH]c(-c2cccc(Cl)c2Cl)nc1C(=O)NS(=O)(=O)c1ccccc1C [Example 260]
Meloidogyne incognita
  pest or weed control at 20 ppm: 100%

## Cn1cc(C(=O)NS(=O)(=O)c2ccccc2C(C)(C)C)nc1-c1c(F)cccc1F [Example 360]
Meloidogyne incognita
  pest or weed control at 20 ppm: 90%

## COc1ccccc1S(=O)(=O)NC(=O)c1cn(C)c(-c2ccncc2)n1 [Example 487]
Meloidogyne incognita
  pest or weed control at 20 ppm: 90%

## Cc1[nH]c(-c2c(F)cccc2Cl)nc1C(=O)NS(=O)(=O)c1ccccc1Cl [Example 623]
Meloidogyne incognita
  pest or weed control at 20 ppm: 100%

## Cn1cc(C(=O)NS(=O)(=O)c2cc(Cl)c(Cl)s2)nc1-c1c(F)cccc1F [Example 355]
Meloidogyne incognita
  pest or weed control at 20 ppm: 90%

## CCc1[nH]c(-c2cc(Cl)cc(Cl)c2)nc1C(=O)NS(=O)(=O)c1ccccc1Cl [Example 254]
Meloidogyne incognita
  pest or weed control at 20 ppm: 90%

## Cn1cc(C(=O)NS(=O)(=O)Nc2ccccc2)nc1-c1c(F)cccc1F [Example 507]
Meloidogyne incognita
  pest or weed control at 20 ppm: 90%

## Cn1cc(C(=O)NS(=O)(=O)c2c(Cl)cccc2Cl)nc1-c1c(F)cc(F)cc1F [Example 4]
Meloidogyne incognita
  pest or weed control at 20 ppm: 90%

## Cc1ccccc1S(=O)(=O)NC(=O)c1nc(-c2c(F)cccc2F)nn1C [Example 410]
Meloidogyne incognita
  pest or weed control at 20 ppm: 90%

## CC(C)c1ccccc1S(=O)(=O)NC(=O)c1cn(C)c(-c2c(F)cccc2F)n1 [Example 359]
Meloidogyne incognita
  pest or weed control at 20 ppm: 90%

## CC(C)S(=O)(=O)NC(=O)c1cn(C)c(-c2c(F)cccc2F)n1 [Example 85]
Meloidogyne incognita
  pest or weed control at 20 ppm: 90%

## Cn1cc(C(=O)NS(=O)(=O)c2ccccc2Cl)nc1-c1ccc(F)c(F)c1 [Example 544]
Meloidogyne incognita
  pest or weed control at 20 ppm: 100%

## Cn1cc(C(=O)NS(=O)(=O)c2ccccc2OC(C)(C)C)nc1-c1c(F)cccc1F [Example 376]
Meloidogyne incognita
  pest or weed control at 20 ppm: 90%

## CCc1[nH]c(-c2cccc(C)c2C)nc1C(=O)NS(=O)(=O)c1ccccc1Cl [Example 472]
Meloidogyne incognita
  pest or weed control at 20 ppm: 90%

## Cn1cc(C(=O)NS(=O)(=O)c2ccccc2Cl)nc1-c1cccs1 [Example 516]
Meloidogyne incognita
  pest or weed control at 20 ppm: 90%

## Cn1cc(C(=O)NS(=O)(=O)c2ccccc2Cl)nc1-c1ccc(Cl)c(Cl)c1 [Example 535]
Meloidogyne incognita
  pest or weed control at 20 ppm: 100%

## Cn1cc(C(=O)NS(=O)(=O)N2CCOCC2)nc1-c1c(F)cccc1F [Example 505]
Meloidogyne incognita
  pest or weed control at 20 ppm: 90%
